Data on 37 compounds can be found in patent publication US12319708B2, “Agonists of peroxisome proliferator-activated receptor alpha (PPARα) and methods of use” (The Board of Regents of the University of Oklahoma, priority 2018, dated 2025).

Where two headings read alike, the source gives them in different places.

The target in this assay is T1, hPPARα (Homo sapiens, UniProt Q07869).
T1 sequence (Q07869 1-468): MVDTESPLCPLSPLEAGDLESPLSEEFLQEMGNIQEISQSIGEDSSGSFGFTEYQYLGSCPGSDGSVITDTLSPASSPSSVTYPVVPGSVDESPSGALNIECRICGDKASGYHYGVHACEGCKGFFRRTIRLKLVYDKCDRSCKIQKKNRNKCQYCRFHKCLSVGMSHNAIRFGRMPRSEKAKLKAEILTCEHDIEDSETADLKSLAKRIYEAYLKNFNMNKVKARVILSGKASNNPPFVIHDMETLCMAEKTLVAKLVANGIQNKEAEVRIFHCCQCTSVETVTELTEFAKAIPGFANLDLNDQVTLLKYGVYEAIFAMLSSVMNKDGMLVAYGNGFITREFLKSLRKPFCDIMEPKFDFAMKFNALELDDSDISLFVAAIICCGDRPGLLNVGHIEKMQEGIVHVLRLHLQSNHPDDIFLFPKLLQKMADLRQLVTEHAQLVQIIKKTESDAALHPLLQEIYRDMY
The experiment in a line: PPARα luciferase cell reporter assay (Indigo Biosciences). Type of assay: cell-based. The note with it: for ratio (5/50): ratio of relative light unit (RLU) signal at 5 and 50 μM: 5 and 50 μM compound concentrations; for fold-signal: ratio of maximal signal strength to that obtained with GW590735: relative to GW590735. The source says:
With the focused subset of analogs in-hand, our efforts shifted to the evaluation of these derivatives for PPARα agonism. Preliminary evaluation utilized a commercially available PPARα luciferase cell reporter assay (Indigo Biosciences). The cell-line employed is engineered to constitutively express high-levels of hPPARα. Upon interaction with an agonist, hPPARα translocates to the nucleus, binds to the PPRE, and upregulates gene transcription, including the inserted luciferase gene. Luciferase activity is detected indirectly through quantification of oxyluciferin production.
In general terms: In a reporter assay the amount or activity of a reporter protein is the signal.

Where [1] appears, read: mean ± SEM of at least two separate experiments in triplicate (Table 9), read-out: EC50 hPPARα.
[2] abbreviates: structure IIa compounds (Table 6).
The mark [3] stands for this setting: Table 6, cellular luciferase activity, read-out: α EC50.
Where [4] appears, read: structure IIb compounds (Table 8).

For the compound `Cc1cc(CNc2cccc(C(=O)O)c2)ccc1OCc1cc(F)cc(F)c1` [25′], the “ratio (5/50): ratio of relative light unit (RLU) signal at 5 and 50 μM” value came to 1.1; the “fold-signal: ratio of maximal signal strength to that obtained with GW590735” value (“fold-signal: ratio” for short) was determined as 1.6.

In the case of `O=C(O)c1cccc(NCc2ccc(OCc3ccc(F)cc3)c(F)c2)c1` [26′], the “ratio (5/50): ratio of relative light unit (RLU) signal at 5 and 50 μM” value worked out at 0.7; the “fold-signal: ratio” value is reported as 1.7.

On to `O=C(O)c1cccc(NCc2ccc(OCc3ccc(F)cc3)c(Cl)c2)c1` [27′], for which the “ratio (5/50): ratio of relative light unit (RLU) signal at 5 and 50 μM” value is on record as 1.1; the “fold-signal: ratio” value is reported as 1.5.

For orientation: EC50 means the concentration that produces a half-maximal response. In the case of `Cc1cc(CN(C)c2cccc(C(=O)O)c2)ccc1OCc1ccc(F)cc1` [30′], the “ratio (5/50): ratio of relative light unit (RLU) signal at 5 and 50 μM” value is reported as 0.8; the “fold-signal: ratio” value was 2.1. The 50% effective concentration (EC50) under setting [1] came to 0.067 ± 0.01 µM.

Take `O=C(O)c1cc(F)cc(NCc2ccc(OCc3ccc(F)cc3)c(Cl)c2)c1` [32′]: the “ratio (5/50): ratio of relative light unit (RLU) signal at 5 and 50 μM” value worked out at 1.1; the “fold-signal: ratio” value stood at 1.8. Further, under setting [1], the EC50 was found to be 0.052 ± 0.011 µM.

With `COc1ccc(COc2ccc(CNc3cccc(B(O)O)c3)cc2)cc1` [Compound 110], under setting [2], the “Fold (5 μM): fold increase in luciferase compared to DMSO negative control” value (“Fold (5 μM): fold increase in luciferase” for short) was 1 fold and the “Fold (50 μM): fold increase in luciferase compared to DMSO negative control” value (from here on “Fold (50 μM): fold increase”) worked out at 1 fold.

Take `CC(C)(Oc1cccc(NCc2ccc(OCc3ccccc3)cc2)c1)C(=O)O` [Compound 116]: under setting [2], the “Fold (5 μM): fold increase in luciferase” value came to 1 fold and the “Fold (50 μM): fold increase” value was 46 fold.

For the compound `O=C(O)c1cccc(NCc2ccc(OCc3ccccc3)cc2)c1` [Compound 117], under setting [2], the “Fold (5 μM): fold increase in luciferase” value is 18 fold and the “Fold (50 μM): fold increase” value is recorded as 35 fold.

As to `O=C(O)c1cccc(NCc2ccc(OCc3ccc(Cl)cc3Cl)cc2)c1` [Compound 118], under setting [2], the “Fold (5 μM): fold increase in luciferase” value is given as 1 fold and the “Fold (50 μM): fold increase” value amounted to 37 fold.

For the compound `O=C(O)c1cccc(NCc2ccc(OCc3cc(F)cc(F)c3)cc2)c1` [Compound 119], under setting [2], the “Fold (5 μM): fold increase in luciferase” value was found to be 9 fold and the “Fold (50 μM): fold increase” value is 35 fold.

As to `O=C(O)c1cccc(NCc2ccc(OCc3ccc([N+](=O)[O-])cc3)cc2)c1` [Compound 120], under setting [2], the “Fold (5 μM): fold increase in luciferase” value was 16 fold and the “Fold (50 μM): fold increase” value is 35 fold.

Consider `CC(C)(Oc1cccc(NCc2ccc(OCc3cc(F)cc(F)c3)cc2)c1)C(=O)O` [Compound 121], for which, under setting [2], the “Fold (5 μM): fold increase in luciferase” value amounted to 16 fold and the “Fold (50 μM): fold increase” value came out at 42 fold.

As for `O=C(O)c1cccc(NCc2ccc(OCc3ccc(Cl)cc3)cc2)c1` [Compound 122], under setting [2], the “Fold (5 μM): fold increase in luciferase” value was found to be 17 fold and the “Fold (50 μM): fold increase” value turned out to be 36 fold.

`CC(C)(Oc1cccc(NCc2ccc(OCc3ccc(Cl)cc3)cc2)c1)C(=O)O` [Compound 123]: under setting [2], the “Fold (5 μM): fold increase in luciferase” value was 2 fold and the “Fold (50 μM): fold increase” value came to 55 fold.

Take `O=C(O)c1cccc(NCc2ccc(OCc3ccc(C(F)(F)F)cc3)cc2)c1` [Compound 126]: under setting [2], the “Fold (5 μM): fold increase in luciferase” value was determined as 81 fold and the “Fold (50 μM): fold increase” value came out at 100 fold. For the same compound, the EC50 under setting [3] worked out at 0.8 µM.

For `CC(C)(Oc1cccc(NCc2ccc(OCc3ccc(F)cc3)cc2)c1)C(=O)O` [Compound 127], under setting [2], the “Fold (5 μM): fold increase in luciferase” value is given as 11 fold and the “Fold (50 μM): fold increase” value came to 150 fold.

As for `CC(C)(Oc1cccc(NCc2ccc(OCc3ccc(C(F)(F)F)cc3)cc2)c1)C(=O)O` [Compound 128], under setting [2], the “Fold (5 μM): fold increase in luciferase” value was 19 fold and the “Fold (50 μM): fold increase” value was determined as 106 fold.

With `O=C(O)COc1cccc(NCc2ccc(OCc3ccc(C(F)(F)F)cc3)cc2)c1` [Compound 129], under setting [2], the “Fold (5 μM): fold increase in luciferase” value stood at 2 fold and the “Fold (50 μM): fold increase” value came to 112 fold.

With `COc1ccc(COc2ccc(CNc3cccc(OCC(=O)O)c3)cc2)cc1` [Compound 130], under setting [2], the “Fold (5 μM): fold increase in luciferase” value was found to be 2 fold and the “Fold (50 μM): fold increase” value stood at 43 fold. Besides, the EC50 under setting [3] was determined as 29.2 µM.

For `O=C(O)c1cccc(NCCc2ccc(OCCc3ccccc3)cc2)c1` [Compound 133], under setting [2], the “Fold (5 μM): fold increase in luciferase” value is given as 1 fold and the “Fold (50 μM): fold increase” value is given as 0 fold.

For `COc1ccc(COc2ccc(CNc3cccc(C(=O)NO)c3)cc2)cc1` [Compound 134], under setting [2], the “Fold (5 μM): fold increase in luciferase” value is 3 fold and the “Fold (50 μM): fold increase” value is 9 fold.

Turning to `CS(=O)(=O)Nc1cccc(NCc2ccc(OCc3ccc(F)cc3)cc2)c1` [Compound 145], under setting [2], the “Fold (5 μM): fold increase in luciferase” value stood at 3 fold and the “Fold (50 μM): fold increase” value was 5 fold.

With `O=C(NO)c1cccc(NCc2ccc(OCc3ccc(F)cc3)cc2)c1` [Compound 146], under setting [2], the “Fold (5 μM): fold increase in luciferase” value is 34 fold and the “Fold (50 μM): fold increase” value was determined as 53 fold.

Consider `NS(=O)(=O)c1cccc(NCc2ccc(OCc3ccc(F)cc3)cc2)c1` [Compound 147], for which, under setting [2], the “Fold (5 μM): fold increase in luciferase” value is given as 3 fold and the “Fold (50 μM): fold increase” value worked out at 3 fold.

Regarding `Fc1ccc(COc2ccc(CNc3cccc(-c4nnn[nH]4)c3)cc2)cc1` [Compound 148], under setting [2], the “Fold (5 μM): fold increase in luciferase” value turned out to be 73 fold and the “Fold (50 μM): fold increase” value stood at 85 fold. In addition, the EC50 under setting [3] was 5.7 µM.

`CN(Cc1ccc(OCc2ccc(F)cc2)cc1)c1cccc(C(=O)O)c1` [Compound 151]: under setting [2], the “Fold (5 μM): fold increase in luciferase” value turned out to be 102 fold and the “Fold (50 μM): fold increase” value amounted to 109 fold. The EC50 under setting [3] was 1 µM.

For `CN(Cc1ccc(OCc2ccc(F)cc2)cc1)c1cccc(OC(C)(C)C(=O)O)c1` [Compound 153], under setting [2], the “Fold (5 μM): fold increase in luciferase” value came out at 94 fold and the “Fold (50 μM): fold increase” value is on record as 120 fold. Also, the EC50 under setting [3] stood at 1.7 µM.

For `OB(O)c1cccc(NCc2ccc(OCc3ccc(F)cc3)cc2)c1` [Compound 154], under setting [2], the “Fold (5 μM): fold increase in luciferase” value was 3 fold and the “Fold (50 μM): fold increase” value worked out at 2 fold.

As to `O=C(O)c1ccc(NCc2ccc(OCc3ccc(C(F)(F)F)cc3)cc2)cc1` [Compound 155], under setting [4], the “Fold (5 μM): fold increase in luciferase” value came out at 4 fold and the “Fold (50 μM): fold increase” value is given as 8 fold.

Turning to `COc1ccc(COc2ccc(CNc3ccc(C(=O)O)cc3)cc2)cc1` [Compound 162], under setting [4], the “Fold (5 μM): fold increase in luciferase” value is given as 4 fold and the “Fold (50 μM): fold increase” value is 29 fold.

On to `O=C(O)c1cc(Cl)cc(NCc2ccc(OCc3ccc(F)cc3)cc2)c1` [Compound 168], for which, under setting [2], the “Fold (5 μM): fold increase in luciferase” value is recorded as 18 fold and the “Fold (50 μM): fold increase” value was found to be 93 fold.

On to `CC(C)(Oc1ccc(NCc2ccc(OCc3ccc(F)cc3)cc2)cc1)C(=O)O` [Compound 182], for which, under setting [4], the “Fold (5 μM): fold increase in luciferase” value is on record as 40 fold and the “Fold (50 μM): fold increase” value was 74 fold.

With `O=C(O)c1ccc(NCc2ccc(OCc3ccc(F)cc3)cc2)cc1` [Compound 183], under setting [4], the “Fold (5 μM): fold increase in luciferase” value stood at 4 fold and the “Fold (50 μM): fold increase” value was 14 fold.

With `O=C(O)c1cc(Br)cc(NCc2ccc(OCc3ccc(F)cc3)cc2)c1` [Compound 184], under setting [2], the “Fold (5 μM): fold increase in luciferase” value is reported as 59 fold and the “Fold (50 μM): fold increase” value was determined as 69 fold. For the same compound, under setting [3], the EC50 amounted to 0.9 µM.

Consider `O=C(O)c1cc(F)cc(NCc2ccc(OCc3ccc(F)cc3)cc2)c1` [Compound 185], for which, under setting [2], the “Fold (5 μM): fold increase in luciferase” value was 61 fold and the “Fold (50 μM): fold increase” value turned out to be 66 fold. Besides, the 50% effective concentration (EC50) under setting [3] is 0.7 µM.

On to `COc1ccc(CCOc2ccc(CCNc3cccc(C(=O)O)c3)cc2)cc1` [Compound 187], for which, under setting [2], the “Fold (5 μM): fold increase in luciferase” value stood at 1 fold and the “Fold (50 μM): fold increase” value is on record as 0 fold.

Consider `CC(C)(Sc1cccc(NCc2ccc(OCc3ccc(F)cc3)cc2)c1)C(=O)O` [Compound 188], for which, under setting [2], the “Fold (5 μM): fold increase in luciferase” value is 10 fold and the “Fold (50 μM): fold increase” value is listed as 45 fold.
